Experimental data as given in ChEMBL document CHEMBL1122322, “Synthesis and antileishmanial activity of 6-methoxy-4-methyl-N-[6-(substituted-1-piperazinyl)hexyl]-8-quinolinamines and related compounds” (1983).
The source made the active and inactive calls. No cut-off for these calls is given here.

Key:
Leishmania donovani [1] = assay: Antileishmanial activity against Leishmania donovani infections in hamsters (at 52 mg/kg).; type: functional
Leishmania donovani [2] = assay: (§1) Antileishmanial activity against Leishmania donovani infections in hamsters (208 mg/kg); type: functional
Leishmania donovani [3] = assay: Glucantime (meglumine antimoniate) index (G index) against Leishmania donovani infections in hamsters.; type: functional
Leishmania donovani [4] = assay: Antileishmanial activity against Leishmania donovani infections in hamsters (at 13 mg/kg).; type: functional
Leishmania donovani [5] = assay: Antileishmanial activity against Leishmania donovani infections in hamsters (0.81 mg/kg); type: functional
Leishmania donovani [6] = assay: Antileishmanial activity against Leishmania donovani infections in hamsters (3.25 mg/kg); type: functional
Leishmania donovani [7] = assay: as §1; type: functional, organism-based
Leishmania donovani [8] = assay: Antileishmanial activity against Leishmania donovani infections in hamsters (208 mg/kg): Inactive; type: functional, organism-based
Leishmania donovani [9] = assay: Antileishmanial activity against Leishmania donovani infections in hamsters (3.25 mg/kg); NA means inactive; type: functional, organism-based
Leishmania donovani [10] = assay: Antileishmanial activity against Leishmania donovani infections in hamsters (104 mg/kg); type: functional, organism-based

Which results are given for `COc1cc(NCCCCCCN2CCS(=O)(=O)CC2)c2nccc(C)c2c1`?
Suppression (Leishmania donovani [1]): 67.6%; Suppression (Leishmania donovani [2]): 100%; G index (Leishmania donovani [3]): 0.5; Suppression (Leishmania donovani [4]): 35%

`CCS(=O)(=O)CCN1CCN(CCCCCCNc2cc(OC)cc3c(C)ccnc23)CC1` was tested. Which Suppression (Leishmania donovani [5]) did it give?
Its Suppression is 21.1%.

And the Suppression (Leishmania donovani [6])?
The Suppression was 99.6%.

What about the Suppression (Leishmania donovani [1]) of the same molecule?
Its Suppression is 99.5%.

What about the Suppression (Leishmania donovani [2]) of the same molecule?
The Suppression was 99.9%.

And the G index (Leishmania donovani [3])?
The G index was 19.

And the Suppression (Leishmania donovani [4])?
The Suppression was 99.7%.

With `COc1cc(NCCCCCCNC(C)C)c2nc(C)cc(C)c2c1.Cl` as the molecule, how does the G index (Leishmania donovani [3]) read?
The G index was 42.

`COc1cc(NCCCCCCN2CCSCC2)c2nccc(C)c2c1.Cl` was tested. Which Suppression (Leishmania donovani [5]) did it give?
The Suppression was 27.61%.

And the Suppression (Leishmania donovani [7])?
The Suppression was “Toxic”.

What about the Suppression (Leishmania donovani [6]) of the same molecule?
Its Suppression is 59.9%.

What about the Suppression (Leishmania donovani [1]) of the same molecule?
Its Suppression is 100%.

And the G index (Leishmania donovani [3])?
Its G index is 6.4.

What about the Suppression (Leishmania donovani [4]) of the same molecule?
The Suppression was 99.8%.

Which results are given for `COc1cc(NCCCCCCN2CC(C)OC(C)C2)c2nccc(C)c2c1.Cl` (configuration not stated)?
Suppression (Leishmania donovani [5]): 61%; Suppression (Leishmania donovani [7]): Toxic; Suppression (Leishmania donovani [6]): 98.7%; Suppression (Leishmania donovani [1]): 99.1%; G index (Leishmania donovani [3]): 24; Suppression (Leishmania donovani [4]): 99.1%

`COc1cc(NCCCCCCN2CCN(CCCN(C)C)CC2)c2nccc(C)c2c1.Cl` was tested. Which Suppression (Leishmania donovani [7]) did it give?
The Suppression was “Toxic”.

What about the Suppression (Leishmania donovani [1]) of the same molecule?
Its Suppression is 99.7%.

And the G index (Leishmania donovani [3])?
The G index was 2.

What about the Suppression (Leishmania donovani [4]) of the same molecule?
The Suppression was 65.8%.

With `CCC(CC)C(=O)N1CCN(CCCCCCNc2cc(OC)cc3c(C)ccnc23)CC1.Cl` as the molecule, how does the Suppression (Leishmania donovani [1]) read?
Its Suppression is 99.3%.

And the Suppression (Leishmania donovani [2])?
The Suppression was 98.6%.

What about the G index (Leishmania donovani [3]) of the same molecule?
The G index was 2.6.

And the Suppression (Leishmania donovani [4])?
The Suppression was 56.6%.

With `CC/N=C(\S)N1CCN(CCCCCCNc2cc(OC)cc3c(C)ccnc23)CC1.Cl` as the molecule, how does the G index (Leishmania donovani [3]) read?
The G index was 2.

What does the source list for `COc1cc(NCCCCCCNC(C)C)c2nccc(C)c2c1Oc1cccc(C(F)(F)F)c1`?
Suppression (Leishmania donovani [7]): Toxic; Suppression (Leishmania donovani [4]): 98.6%

Which Suppression (Leishmania donovani [7]) does the source give for `CCN(CC)C(=O)N1CCN(CCCCCCNc2cc(OC)cc3c(C)ccnc23)CC1.Cl` here?
Its Suppression is “Toxic”.

And the Suppression (Leishmania donovani [6])?
The Suppression was 72.2%.

And the Suppression (Leishmania donovani [1])?
Its Suppression is 98.6%.

What about the G index (Leishmania donovani [3]) of the same molecule?
Its G index is 8.

What about the Suppression (Leishmania donovani [4]) of the same molecule?
The Suppression was 98.8%.

Which Suppression (Leishmania donovani [8]) does the source give for `COc1cc(NCCCCCCN2CCN(C3CCCCC3)CC2)c2nccc(C)c2c1` here?
Its Suppression is “inactive”.

Which results are given for `COc1cc(NCCCCCCN2CCN(CCO)CC2)c2nccc(C)c2c1Oc1cccc(C(F)(F)F)c1.Cl`?
Suppression (Leishmania donovani [7]): Toxic; Suppression (Leishmania donovani [1]): 99.1%; Suppression (Leishmania donovani [4]): 98%

Which NA (Leishmania donovani [9]) does the source give for MEGLUMINE ANTIMONATE here?
Its NA is “inactive”.

And the G index (Leishmania donovani [3])?
The G index was 1.

What about the Suppression (Leishmania donovani [10]) of the same molecule?
The Suppression was 91.3%.

What about the Suppression (Leishmania donovani [4]) of the same molecule?
The Suppression was 42%.

Which Suppression (Leishmania donovani [5]) does the source give for `COc1cc(NCCCCCCN2CCN(CCO)CC2)c2nccc(C)c2c1.Cl` here?
Its Suppression is 85.8%.

What about the Suppression (Leishmania donovani [6]) of the same molecule?
The Suppression was 97%.

And the Suppression (Leishmania donovani [1])?
Its Suppression is 100%.

What about the G index (Leishmania donovani [3]) of the same molecule?
The G index was 104.

What about the Suppression (Leishmania donovani [4]) of the same molecule?
The Suppression was 100%.

`CCCN(CCC)C(=O)N1CCN(CCCCCCNc2cc(OC)cc3c(C)ccnc23)CC1.Cl` was tested. Which Suppression (Leishmania donovani [1]) did it give?
Its Suppression is 99.4%.

What about the Suppression (Leishmania donovani [2]) of the same molecule?
The Suppression was 100%.

And the G index (Leishmania donovani [3])?
Its G index is 6.

What about the Suppression (Leishmania donovani [4]) of the same molecule?
The Suppression was 89.7%.

With `COc1cc(NCCCCCCN2C[C@H](C)S[C@@H](C)C2)c2nccc(C)c2c1` as the molecule, how does the Suppression (Leishmania donovani [1]) read?
The Suppression was 65%.

What about the Suppression (Leishmania donovani [2]) of the same molecule?
Its Suppression is 98.2%.

And the G index (Leishmania donovani [3])?
The G index was 0.4.

What about the Suppression (Leishmania donovani [4]) of the same molecule?
The Suppression was 21.4%.

`COc1cc(NCCCCCCN2CCN(S(=O)(=O)c3ccccc3)c3ccccc32)c2nccc(C)c2c1` was tested. Which Suppression (Leishmania donovani [8]) did it give?
The Suppression was “inactive”.

With `COc1cc(NCCCCCCN2CCNc3ccccc32)c2nccc(C)c2c1` as the molecule, how does the Suppression (Leishmania donovani [8]) read?
Its Suppression is “inactive”.

For `COc1cc(NCCCCCCN2C[C@@H](C)S[C@@H](C)C2)c2nccc(C)c2c1`, which Suppression (Leishmania donovani [7]) is on record?
Its Suppression is “Toxic”.

What about the Suppression (Leishmania donovani [1]) of the same molecule?
Its Suppression is 93.7%.

What about the G index (Leishmania donovani [3]) of the same molecule?
The G index was 1.5.

And the Suppression (Leishmania donovani [4])?
The Suppression was 81.1%.

For `CCN(CC)CCCCCCNc1cc(OC)cc2c(C)cc(C)nc12.Cl`, which G index (Leishmania donovani [3]) is on record?
The G index was 32.

`CCC(C)NCCCCCCNc1cc(OC)cc2c(C)cc(C)nc12.Cl` (configuration not stated) was tested. Which G index (Leishmania donovani [3]) did it give?
Its G index is 28.

Which Suppression (Leishmania donovani [7]) does the source give for `COc1cc(NCCCCCCN2CCN(C(=O)OCc3ccccc3)CC2)c2nccc(C)c2c1.Cl` here?
Its Suppression is “Toxic”.

What about the Suppression (Leishmania donovani [1]) of the same molecule?
Its Suppression is 98%.

And the G index (Leishmania donovani [3])?
The G index was 2.3.

And the Suppression (Leishmania donovani [4])?
The Suppression was 54.6%.
